Reference: patent US20240301409A1, “Chemically Modified Small Activating RNA” (RACTIGEN THERAPEUTICS, priority 2021, published 2024)
Oligonucleotides are written 5' to 3', each unit as a sugar letter and its base; * is a phosphorothioate linkage, no mark a phosphodiester; rarer units and linkages stand in square brackets, end groups in braces. Plain capitals give the bases only. m = 2'-O-methyl; r = 2'-OH (RNA); f = 2'-fluoro

Tests used:
[1] = system: T24 cells; experiment: Cellular proliferation assay (CCK8) in T24 cells, alone and combined with Mitomycin C or valrubicin; assay type: cell-based, human
Source text: After the transfection, the number of viable cells was detected with a CCK8 kit, and plotted as the percentage of the blank control treatment group. […] A transfection sample without oligonucleotide served as a blank control. Non-specific duplex (dsCon) transfected sample served as a negative control. Data are presented as mean±SD of at least two independent experiments. The values below the dashed line indicate stronger growth inhibitory activity compared to duplex Rag1-40 without chemical modification.
T24 cells were transfected with RAG1-40-31 at concentrations of 0.1, 0.5, 1, 5, 10, 25 and 50 nM for 24 hours, and then Mitomycin C was added at concentrations of 1, 10, 100, 1000 and 10000 nM. The combined treatment was carried out with concentrations in pairs. After treatment, the cellular proliferation was detected by CCK8 kit. FIGS. 16A-16B show the relative proliferation proportion of T24 cells after the combined treatment with chemically modified saRNA RAG1-40-31 and valrubicin. […] Control and DMSO are the blank transfection control and the solvent for dilution control, respectively.
T24 cells were transfected with RAG1-40-31 at concentrations of 0.1, 0.5, 1, 5, 10, 25 and 50 nM for 24 hours, and then valrubicin at concentrations of 1, 10, 100, 1000 and 10000 nM was added. The combined treatment was carried out with concentrations in pairs. After treatment, the cellular proliferation was detected by CCK8 kit.
(§1) Human bladder cancer cells Ku-7-LG (ATCC), J82 (ATCC) and T24 (ATCC) were cultured in McCoy medium (Gibco) comprising 10% calf serum (Sigma-Aldrich) and 1% penicillin/Streptomycin (Gibco). Cells were cultured at 37° C. under 5% CO2. Ku-7-LG, J82 and T24 cells were plated into 12-well plates at 10×10^4 cells per well, transfected with the small RNA at a concentration of 10 nM (unless otherwise specified) for three days, using RNAiMax (Invitrogen, Carlsbad, CA) according to the manufacturer's instructions. Two replicate wells were set for each treatment.
(§2) Cells were plated in a 96-well plate at 2˜4×10^3 cells/well, cultured overnight, and transfected with the oligonucleotide duplexes. Three days after transfection, CCK8 (Dojindo) was used to detect cellular proliferation following manufacturer's instructions. The experimental steps are briefly described as follows: 10 μL of CCK8 solution was added to each well, incubated at 37° C. for 1 hour, and then the absorbance at 450 nm was measured using a microplate reader.
It is known that p21 induction by saRNA is that a variety of tumor suppressor factors such as p21 protein suppress the proliferation of cancer cells. To evaluate the effect of chemically modified saRNAs on the function of cancer cells, cells (Ku-7-LG and T24) were transfected with 10 nM unmodified and modified saRNAs for 72 hours, and the cellular proliferation was determined by CCK8. […] Furthermore, there was a correlation between RNA activating activity (FIGS. 7A-7B) and suppression of cellular proliferation activity (FIGS. 8A-8B). Strong p21 activators are usually also strong cytostatics.

[2] = system: J82 cells; experiment: Cellular proliferation assay (CCK8) in J82 cells, combined with Mitomycin C or valrubicin; assay type: cell-based, human
Method: J82 cells were transfected with RAG1-40-31 at concentrations of 0.1, 0.5, 1, 5, 10, 25 and 50 nM for 24 hours, and then Mitomycin C at concentrations of 1, 10, 100, 1000 and 10000 nM was added. The combined treatment was carried out with concentrations in pairs. After treatment, the proliferation of cells was detected using CCK8 kit. FIGS. 14A-14B show the relative proliferation proportion of J82 cells after the combined treatment with chemically modified saRNA RAG1-40-31 and valrubicin. […] Control and DMSO are the blank transfection control and the solvent for dilution control, respectively.
J82 cells were transfected with RAG1-40-31 at concentrations of 0.1, 0.5, 1, 5, 10, 25 and 50 nM for 24 hours, and then valrubicin at concentrations of 1, 10, 100, 1000 and 10000 nM was added. The combined treatment was carried out with concentrations in pairs. After treatment, the cellular proliferation was detected by CCK8 kit. FIGS. 15A-15B show the relative proliferation proportion of T24 cells after the combined treatment with chemically modified saRNA RAG1-40-31 and Mitomycin C. […] Control and DMSO are the blank transfection control and the solvent for dilution control, respectively.
as §1, §2
In this example, chemically modified saRNA RAG1-40-31 was used in combination with clinical chemical agents to evaluate the suppressing effect of the combined agents on cancer cells.

[3] = biological target: T1, RNase A (Bos taurus, UniProt P61823)
T1 sequence (P61823 27-150): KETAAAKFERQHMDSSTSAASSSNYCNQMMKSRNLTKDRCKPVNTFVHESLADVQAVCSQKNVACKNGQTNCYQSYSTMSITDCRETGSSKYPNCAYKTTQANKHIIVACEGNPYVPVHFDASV

[4] = system: Rag1-40 target sequence in the 3′ UTR of firefly luciferase, COS-1 cells

CO[C@@]12[C@H](COC(N)=O)C3=C(C(=O)C(C)=C(N)C3=O)N1C[C@@H]1N[C@@H]12 [MMC, Mitomycin C, reference compound]
Relative proliferation proportion of T24 cells ([1]; RAG1-40-31 0 nM + MMC 1 nM): 100.0%
Relative proliferation proportion of T24 cells ([1]; RAG1-40-31 0 nM + MMC 10 nM): 100.0%
Relative proliferation proportion of T24 cells ([1]; RAG1-40-31 0 nM + MMC 100 nM): 100.0%
Relative proliferation proportion of T24 cells ([1]; RAG1-40-31 0 nM + MMC 1000 nM): 100.0%
Relative proliferation proportion of T24 cells ([1]; RAG1-40-31 0 nM + MMC 10000 nM): 100.0%
Relative proliferation proportion of J82 cells ([2]; RAG1-40-31 0 nM + MMC 1 nM): 99.9%
Relative proliferation proportion of J82 cells ([2]; RAG1-40-31 0 nM + MMC 10 nM): 99.9%
Relative proliferation proportion of J82 cells ([2]; RAG1-40-31 0 nM + MMC 100 nM): 99.9%
Relative proliferation proportion of J82 cells ([2]; RAG1-40-31 0 nM + MMC 1000 nM): 100.0%
Relative proliferation proportion of J82 cells ([2]; RAG1-40-31 0 nM + MMC 10000 nM): 100.0%

CCCCC(=O)OCC(=O)[C@]1(O)Cc2c(O)c3c(c(O)c2[C@@H](O[C@H]2C[C@H](NC(=O)C(F)(F)F)[C@H](O)[C@H](C)O2)C1)C(=O)c1c(OC)cccc1C3=O [valrubicin, Valrubicin, reference compound]
Relative proliferation proportion of T24 cells ([1]; RAG1-40-31 0 nM + valrubicin 1 nm): 100.0%
Relative proliferation proportion of T24 cells ([1]; RAG1-40-31 0 nM + valrubicin 10 nm): 100.0%
Relative proliferation proportion of T24 cells ([1]; RAG1-40-31 0 nM + valrubicin 100 nm): 100.0%
Relative proliferation proportion of T24 cells ([1]; RAG1-40-31 0 nM + valrubicin 1000 nm): 100.0%
Relative proliferation proportion of T24 cells ([1]; RAG1-40-31 0 nM + valrubicin 10000 nm): 100.0%
Relative proliferation proportion of J82 cells ([2]; RAG1-40-31 0 nM + valrubicin 1 nM): 100.0%
Relative proliferation proportion of J82 cells ([2]; RAG1-40-31 0 nM + valrubicin 10 nM): 100.0%
Relative proliferation proportion of J82 cells ([2]; RAG1-40-31 0 nM + valrubicin 100 nM): 100.0%
Relative proliferation proportion of J82 cells ([2]; RAG1-40-31 0 nM + valrubicin 1000 nM): 100.0%
Relative proliferation proportion of J82 cells ([2]; RAG1-40-31 0 nM + valrubicin 10000 nM): 100.0%

Rag1-40-2: saRNA duplex: sense mCmCAACUCAUUCUCCAAGmUmC (SEQ ID NO 5); antisense fUACUfUGGAGAAfUGAGUfUGGfCA (SEQ ID NO 7) (sense CCAACUCAUUCUCCAAGUC; antisense UACUUGGAGAAUGAGUUGGCA; 2'-OMe and 2'-F modifications; modified_base (1)..(19) (1,2,18,19)=2′-O-methyl(2′-OMe); modified_base (1)..(20) (1,5,12,17,20)=2′-fluoro)
time to complete degradation [3]: ≤ 24 h
off-target effect compared to unmodified Rag1-40, in words [4]: mitigated or similar off-target effects

Rag1-40-4: saRNA duplex: sense mCmCAACUCAUUCUCCAAGmUmC (SEQ ID NO 5); antisense fUACUfUGGAGAAfUGAGUfUGG*fC*A (SEQ ID NO 9) (sense mCmCrArArCrUrCrArUrUrCrUrCrCrArArGmUmC; antisense fUrArCrUfUrGrGrArGrArAfUrGrArGrUfUrGrG*fC*rA)
time to complete degradation [3]: ≤ 24 h
off-target effect compared to unmodified Rag1-40, in words [4]: completely inhibited

Rag1-40-6: saRNA duplex: sense mCmCAACUCAUUCUCCAAGmUmC (SEQ ID NO 5); antisense fU*A*fCfUfUGGAGAAfUGAGfUfUGG*fC*A (SEQ ID NO 11) (sense mCmCrArArCrUrCrArUrUrCrUrCrCrArArGmUmC; antisense fU*rA*fCfUfUrGrGrArGrArAfUrGrArGfUfUrGrG*fC*rA)
degradation of duplex at 96 hours [3]: little or no signs of degradation
off-target effect compared to unmodified Rag1-40, in words [4]: mitigated or similar off-target effects

Rag1-40-7: saRNA duplex: sense mCmCAACUCAUUCUCCAAGmUmC (SEQ ID NO 5); antisense U*A*fCfUfUGGAGAAfUGAGfUfUGG*fC*A (SEQ ID NO 12) (sense mCmCrArArCrUrCrArUrUrCrUrCrCrArArGmUmC; antisense rU*rA*fCfUfUrGrGrArGrArAfUrGrArGfUfUrGrG*fC*rA)
degradation of duplex at 96 hours [3]: little or no signs of degradation
off-target effect compared to unmodified Rag1-40, in words [4]: mitigated or similar off-target effects

Rag1-40-10: saRNA duplex: sense fCfCAACUCAUUCUCCAAGfUfC (SEQ ID NO 14); antisense fUACUfUGGAGAAfUGAGUfUGGfCA (SEQ ID NO 7) (sense CCAACUCAUUCUCCAAGUC; antisense UACUUGGAGAAUGAGUUGGCA; 2'-F modifications; modified_base (1)..(19) (1,2,18,19)=2′-fluoro; modified_base (1)..(20) (1,5,12,17,20)=2′-fluoro)
time to complete degradation [3]: ≤ 24 h
off-target effect compared to unmodified Rag1-40, in words [4]: completely inhibited

Rag1-40-12: saRNA duplex: sense fCfCAACUCAUUCUCCAAGfUfC (SEQ ID NO 14); antisense fUACUfUGGAGAAfUGAGUfUGG*fC*A (SEQ ID NO 9) (sense CCAACUCAUUCUCCAAGUC; antisense UACUUGGAGAAUGAGUUGGCA; 2'-F and phosphorothioate modifications; modified_base (1)..(19) (1,2,18,19)=2′-fluoro; modified_base (1)..(20) (1,5,12,17,20)=2′-fluoro; modified_base (19)..(21) (19,20,21)=phosphorothioate (PS) backbone modification)
time to complete degradation [3]: ≤ 24 h
off-target effect compared to unmodified Rag1-40, in words [4]: mitigated or similar off-target effects

Rag1-40-18: saRNA duplex: sense mCmCAACUCAUUCUCCAAG*U*C (SEQ ID NO 15); antisense fUACUfUGGAGAAfUGAGUfUGGfCA (SEQ ID NO 7) (sense CCAACUCAUUCUCCAAGUC; antisense UACUUGGAGAAUGAGUUGGCA; 2'-OMe, 2'-F, phosphorothioate modifications; modified_base (1)..(2) (1,2)=2′-O-methyl(2′-OMe); modified_base (17)..(19) (17,18,19)=phosphorothioate (PS) backbone modification; modified_base (1)..(20) (1,5,12,17,20)=2′-fluoro)
time to complete degradation [3]: ≤ 24 h
off-target effect compared to unmodified Rag1-40, in words [4]: mitigated or similar off-target effects

Rag1-40-20: saRNA duplex: sense mCmCAACUCAUUCUCCAAG*U*C (SEQ ID NO 15); antisense fUACUfUGGAGAAfUGAGUfUGG*fC*A (SEQ ID NO 9) (sense CCAACUCAUUCUCCAAGUC; antisense UACUUGGAGAAUGAGUUGGCA; 2'-OMe, 2'-F, phosphorothioate modifications; modified_base (1)..(2) (1,2)=2′-O-methyl(2′-OMe); modified_base (17)..(19) (17,18,19)=phosphorothioate (PS) backbone modification; modified_base (1)..(20) (1,5,12,17,20)=2′-fluoro; modified_base (19)..(21) (19,20,21)=phosphorothioate (PS) backbone modification)
time to complete degradation [3]: ≤ 24 h
off-target effect compared to unmodified Rag1-40, in words [4]: mitigated or similar off-target effects
